ChEMBL document CHEMBL5233266, “β-Carboline as a Privileged Scaffold for Multitarget Strategies in Alzheimer's Disease Therapy” (J Med Chem, 2021)
pIC50, pKi: −log10 of the molar value. Where “and” joins values, the source holds several entries; their conditions need not be identical. Equal values may be shown once.

Tests used:
Acetylcholinesterase [1] = molecular target: T1, Acetylcholinesterase (Homo sapiens, UniProt P22303); experiment: Inhibition of AChE (unknown origin)
Cholinesterase = Cholinesterase (Homo sapiens, UniProt P06276); experiment: Inhibition of BuChE (unknown origin)
[2] = molecular target: Dual specificity tyrosine-phosphorylation-regulated kinase 1A (Homo sapiens, UniProt Q13627); experiment: Inhibition of DYRK1A (unknown origin)
[3] = molecular target: T2, Amine oxidase [flavin-containing] A (Homo sapiens, UniProt P21397); experiment: Inhibition of MAO-A (unknown origin)
T2 sequence (P21397 whole entry): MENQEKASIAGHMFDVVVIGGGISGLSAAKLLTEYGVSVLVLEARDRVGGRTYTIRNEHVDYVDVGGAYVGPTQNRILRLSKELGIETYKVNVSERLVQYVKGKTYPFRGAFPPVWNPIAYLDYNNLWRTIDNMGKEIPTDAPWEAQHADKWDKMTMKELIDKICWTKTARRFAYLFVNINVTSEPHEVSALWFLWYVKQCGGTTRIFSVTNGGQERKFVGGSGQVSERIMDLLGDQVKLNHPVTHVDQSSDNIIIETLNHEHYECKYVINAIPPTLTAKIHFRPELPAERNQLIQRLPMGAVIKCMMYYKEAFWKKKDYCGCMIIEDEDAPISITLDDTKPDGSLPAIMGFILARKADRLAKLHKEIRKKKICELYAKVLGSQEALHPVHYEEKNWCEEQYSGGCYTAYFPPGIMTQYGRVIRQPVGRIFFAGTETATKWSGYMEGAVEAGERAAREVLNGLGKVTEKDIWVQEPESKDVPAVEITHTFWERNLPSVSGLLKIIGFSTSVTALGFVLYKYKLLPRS

[4] = molecular target: GABA-A receptor; anion channel; experiment: Displacement of [3H]flunitrazepam from GABAA (unknown origin ) receptor by radioligand binding assay; assay type: protein-complex assay, Homo sapiens
Acetylcholinesterase [5] = molecular target: T1, Acetylcholinesterase; experiment: Inhibition of AChE (unknown origin) by Ellman's method
[6] = molecular target: 5-hydroxytryptamine receptor 2A (Rattus norvegicus, UniProt P14842); experiment: Displacement of [3H]-ketanserin from rat 5-HT2A expressed in mouse NIH/3T3 cells assessed as inhibition constant by Cheng-Prusoff equation analysis; assay type: cell-based
[7] = molecular target: T3, Gamma-aminobutyric acid receptor subunit alpha-1 (Homo sapiens, UniProt P14867); experiment: Binding affinity to human recombinant GABAA alpha1 receptor assessed as inhibition constant incubated for 1 hrs by liquid scintillation counting analysis
T3 sequence (P14867 whole entry): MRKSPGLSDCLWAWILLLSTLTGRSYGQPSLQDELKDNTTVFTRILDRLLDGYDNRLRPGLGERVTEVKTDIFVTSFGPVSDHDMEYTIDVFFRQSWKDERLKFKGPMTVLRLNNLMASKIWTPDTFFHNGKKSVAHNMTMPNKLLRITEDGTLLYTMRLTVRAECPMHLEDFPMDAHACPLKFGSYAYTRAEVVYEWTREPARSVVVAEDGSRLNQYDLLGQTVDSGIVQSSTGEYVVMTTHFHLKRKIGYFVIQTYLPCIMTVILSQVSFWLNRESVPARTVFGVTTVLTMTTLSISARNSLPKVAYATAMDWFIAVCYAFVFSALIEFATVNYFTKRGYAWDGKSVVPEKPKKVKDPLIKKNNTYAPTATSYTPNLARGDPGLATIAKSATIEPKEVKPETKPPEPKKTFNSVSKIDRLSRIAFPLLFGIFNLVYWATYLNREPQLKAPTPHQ

[8] = molecular target: T4, Gamma-aminobutyric acid receptor subunit alpha-2 (Homo sapiens, UniProt P47869); experiment: Binding affinity to human recombinant GABAA alpha2 receptor assessed as inhibition constant incubated for 1 hrs by liquid scintillation counting analysis
T4 sequence (P47869 whole entry): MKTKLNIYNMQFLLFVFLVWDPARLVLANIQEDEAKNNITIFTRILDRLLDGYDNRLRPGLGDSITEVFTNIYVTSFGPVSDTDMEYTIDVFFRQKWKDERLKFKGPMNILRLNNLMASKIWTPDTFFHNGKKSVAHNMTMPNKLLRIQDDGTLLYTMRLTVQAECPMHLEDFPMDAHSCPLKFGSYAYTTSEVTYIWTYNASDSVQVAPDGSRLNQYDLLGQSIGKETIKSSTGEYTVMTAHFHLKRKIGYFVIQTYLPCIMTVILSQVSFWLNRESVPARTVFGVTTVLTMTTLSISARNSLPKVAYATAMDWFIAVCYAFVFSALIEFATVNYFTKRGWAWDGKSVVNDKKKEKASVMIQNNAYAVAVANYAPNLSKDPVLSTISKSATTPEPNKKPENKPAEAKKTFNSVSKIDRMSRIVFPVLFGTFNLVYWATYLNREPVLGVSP

[9] = molecular target: T5, Gamma-aminobutyric acid receptor subunit alpha-3 (Homo sapiens, UniProt P34903); experiment: Binding affinity to human recombinant GABAA alpha3 receptor assessed as inhibition constant incubated for 1 hrs by liquid scintillation counting analysis
T5 sequence (P34903 whole entry): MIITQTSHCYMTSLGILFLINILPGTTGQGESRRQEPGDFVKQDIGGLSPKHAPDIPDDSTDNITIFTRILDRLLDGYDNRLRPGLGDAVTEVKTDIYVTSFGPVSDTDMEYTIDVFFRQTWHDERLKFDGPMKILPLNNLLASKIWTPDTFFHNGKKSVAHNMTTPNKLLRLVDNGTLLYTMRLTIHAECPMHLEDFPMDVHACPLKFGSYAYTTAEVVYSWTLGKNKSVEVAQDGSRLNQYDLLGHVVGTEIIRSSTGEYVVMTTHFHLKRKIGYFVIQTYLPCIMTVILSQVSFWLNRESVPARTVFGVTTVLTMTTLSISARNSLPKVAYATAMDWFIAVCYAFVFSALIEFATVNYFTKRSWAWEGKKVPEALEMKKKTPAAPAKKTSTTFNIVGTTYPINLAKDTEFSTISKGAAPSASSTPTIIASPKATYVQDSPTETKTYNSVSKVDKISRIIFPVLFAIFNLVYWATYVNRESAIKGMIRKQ

[10] = molecular target: Gamma-aminobutyric acid receptor subunit alpha-4 (Homo sapiens, UniProt P48169); experiment: Binding affinity to human recombinant GABAA alpha4 receptor assessed as inhibition constant incubated for 1 hrs by liquid scintillation counting analysis
[11] = molecular target: T6, Gamma-aminobutyric acid receptor subunit alpha-5 (Homo sapiens, UniProt P31644); experiment: Binding affinity to human recombinant GABAA alpha5 receptor assessed as inhibition constant incubated for 1 hrs by liquid scintillation counting analysis
T6 sequence (P31644 whole entry): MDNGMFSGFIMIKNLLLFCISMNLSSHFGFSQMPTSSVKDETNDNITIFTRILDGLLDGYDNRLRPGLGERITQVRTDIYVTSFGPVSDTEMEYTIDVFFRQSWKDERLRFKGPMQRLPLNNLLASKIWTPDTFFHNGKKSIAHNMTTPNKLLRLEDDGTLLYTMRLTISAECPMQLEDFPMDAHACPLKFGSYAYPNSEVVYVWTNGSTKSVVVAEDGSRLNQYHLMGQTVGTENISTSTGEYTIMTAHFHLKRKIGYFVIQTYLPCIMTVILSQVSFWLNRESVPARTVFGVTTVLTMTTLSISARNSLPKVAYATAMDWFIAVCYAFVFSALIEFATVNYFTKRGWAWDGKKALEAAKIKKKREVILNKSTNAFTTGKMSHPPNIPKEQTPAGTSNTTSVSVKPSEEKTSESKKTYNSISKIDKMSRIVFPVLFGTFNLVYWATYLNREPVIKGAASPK

[12] = molecular target: Gamma-aminobutyric acid receptor subunit alpha-6 (Homo sapiens, UniProt Q16445); experiment: Binding affinity to human recombinant GABAA alpha6 receptor assessed as inhibition constant incubated for 1 hrs by liquid scintillation counting analysis
[13] = molecular target: 5-hydroxytryptamine receptor 5A (Homo sapiens, UniProt P47898); experiment: Binding affinity to 5-HT5AR (unknown origin) assessed as inhibition constant
[14] = molecular target: T7, 5-hydroxytryptamine receptor 2C (Homo sapiens, UniProt P28335); experiment: Binding affinity to 5-HT2C (unknown origin) assessed as inhibition constant
T7 sequence (P28335 whole entry): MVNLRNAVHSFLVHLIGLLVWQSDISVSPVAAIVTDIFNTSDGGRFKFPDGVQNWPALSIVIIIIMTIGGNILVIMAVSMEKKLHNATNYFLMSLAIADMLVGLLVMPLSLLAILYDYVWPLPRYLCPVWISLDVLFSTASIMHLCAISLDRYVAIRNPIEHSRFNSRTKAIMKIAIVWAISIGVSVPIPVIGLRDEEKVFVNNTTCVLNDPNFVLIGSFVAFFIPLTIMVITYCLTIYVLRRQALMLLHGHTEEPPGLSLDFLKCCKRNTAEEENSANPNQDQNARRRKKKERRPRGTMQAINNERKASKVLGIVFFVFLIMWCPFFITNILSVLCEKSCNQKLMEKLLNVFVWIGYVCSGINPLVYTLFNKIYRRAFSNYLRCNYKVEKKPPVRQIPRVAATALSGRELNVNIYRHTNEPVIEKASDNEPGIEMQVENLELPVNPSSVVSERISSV

[15] = molecular target: T8, 5-hydroxytryptamine receptor 2B (Homo sapiens, UniProt P41595); experiment: Binding affinity to 5-HT2BR (unknown origin) assessed as inhibition constant
Acetylcholinesterase [16] = molecular target: T1, Acetylcholinesterase; experiment: Inhibition of AChE (unknown origin) incubated for 40 mins by Ellman's method
[17] = molecular target: 5-hydroxytryptamine receptor 2B (Rattus norvegicus, UniProt P30994); experiment: Displacement of [3H]-ketanserin from rat 5-HT2B expressed in mouse NIH/3T3 cells assessed as inhibition constant by Cheng-Prusoff equation analysis; assay type: cell-based
[18] = molecular target: T8, 5-hydroxytryptamine receptor 2B; experiment: Binding affinity to 5-HT2B (unknown origin) assessed as equilibrium binding constant
[19] = molecular target: cGMP-specific 3',5'-cyclic phosphodiesterase (Homo sapiens, UniProt O76074); experiment: Binding affinity to PDE5 (unknown origin) assessed as inhibition constant
[20] = molecular target: Glutamate receptor ionotropic, NMDA 2B (Homo sapiens, UniProt Q05586+Q13224); experiment: Inhibition of NMDA receptor NR2B subunit (unknown origin)
Chain of Glutamate receptor ionotropic, NMDA 2B (Q13224 whole entry, one chain of several): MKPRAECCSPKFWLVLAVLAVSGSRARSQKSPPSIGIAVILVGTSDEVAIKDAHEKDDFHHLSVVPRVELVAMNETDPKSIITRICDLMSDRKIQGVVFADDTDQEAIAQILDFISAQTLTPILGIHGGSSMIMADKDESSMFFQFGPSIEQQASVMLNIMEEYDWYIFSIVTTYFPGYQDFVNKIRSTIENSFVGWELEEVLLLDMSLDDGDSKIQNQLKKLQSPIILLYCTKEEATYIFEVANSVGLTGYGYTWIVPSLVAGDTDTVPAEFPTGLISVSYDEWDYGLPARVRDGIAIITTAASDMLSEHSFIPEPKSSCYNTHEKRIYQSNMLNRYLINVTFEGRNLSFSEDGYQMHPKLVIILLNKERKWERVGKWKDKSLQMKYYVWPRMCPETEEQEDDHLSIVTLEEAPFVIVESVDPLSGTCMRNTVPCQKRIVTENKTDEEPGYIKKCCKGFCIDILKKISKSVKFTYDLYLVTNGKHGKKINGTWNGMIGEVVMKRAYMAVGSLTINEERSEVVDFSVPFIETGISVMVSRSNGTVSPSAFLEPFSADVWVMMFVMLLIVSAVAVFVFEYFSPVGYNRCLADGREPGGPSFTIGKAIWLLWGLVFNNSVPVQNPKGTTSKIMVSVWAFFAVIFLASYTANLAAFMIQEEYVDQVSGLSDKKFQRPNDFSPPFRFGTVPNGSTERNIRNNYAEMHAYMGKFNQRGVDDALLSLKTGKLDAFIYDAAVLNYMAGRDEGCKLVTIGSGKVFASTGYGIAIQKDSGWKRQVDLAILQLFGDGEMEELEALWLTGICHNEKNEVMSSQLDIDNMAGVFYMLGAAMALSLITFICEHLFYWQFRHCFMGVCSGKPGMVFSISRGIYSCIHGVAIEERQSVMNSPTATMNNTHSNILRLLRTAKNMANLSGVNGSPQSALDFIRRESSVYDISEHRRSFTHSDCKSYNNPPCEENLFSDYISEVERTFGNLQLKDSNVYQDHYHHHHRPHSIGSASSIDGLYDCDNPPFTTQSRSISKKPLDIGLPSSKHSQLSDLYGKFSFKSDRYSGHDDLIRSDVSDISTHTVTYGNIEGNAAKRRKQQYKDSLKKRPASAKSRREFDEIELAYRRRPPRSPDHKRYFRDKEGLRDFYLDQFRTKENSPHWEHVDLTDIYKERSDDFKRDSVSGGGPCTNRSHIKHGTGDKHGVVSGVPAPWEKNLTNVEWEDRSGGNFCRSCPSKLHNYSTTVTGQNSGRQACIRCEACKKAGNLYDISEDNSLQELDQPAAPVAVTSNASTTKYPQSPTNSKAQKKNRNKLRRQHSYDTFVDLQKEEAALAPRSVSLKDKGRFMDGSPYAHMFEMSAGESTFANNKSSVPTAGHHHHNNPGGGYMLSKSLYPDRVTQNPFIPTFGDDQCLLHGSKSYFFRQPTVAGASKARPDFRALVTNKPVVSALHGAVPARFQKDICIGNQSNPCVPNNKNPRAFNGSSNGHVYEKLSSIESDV

Chain of 5-hydroxytryptamine receptor 2A (P14842 whole entry): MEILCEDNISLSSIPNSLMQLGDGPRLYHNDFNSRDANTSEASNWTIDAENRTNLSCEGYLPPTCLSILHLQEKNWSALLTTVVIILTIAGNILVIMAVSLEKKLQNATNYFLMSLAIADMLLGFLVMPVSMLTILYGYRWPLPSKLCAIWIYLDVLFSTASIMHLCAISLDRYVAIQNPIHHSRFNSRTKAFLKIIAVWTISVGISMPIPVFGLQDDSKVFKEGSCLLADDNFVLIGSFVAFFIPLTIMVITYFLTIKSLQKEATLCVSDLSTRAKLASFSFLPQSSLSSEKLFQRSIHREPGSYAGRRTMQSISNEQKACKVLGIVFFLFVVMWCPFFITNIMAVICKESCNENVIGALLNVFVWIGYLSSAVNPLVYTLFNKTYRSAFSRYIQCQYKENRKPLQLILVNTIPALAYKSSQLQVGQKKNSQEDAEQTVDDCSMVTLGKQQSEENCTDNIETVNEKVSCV
T1 sequence (P22303 whole entry): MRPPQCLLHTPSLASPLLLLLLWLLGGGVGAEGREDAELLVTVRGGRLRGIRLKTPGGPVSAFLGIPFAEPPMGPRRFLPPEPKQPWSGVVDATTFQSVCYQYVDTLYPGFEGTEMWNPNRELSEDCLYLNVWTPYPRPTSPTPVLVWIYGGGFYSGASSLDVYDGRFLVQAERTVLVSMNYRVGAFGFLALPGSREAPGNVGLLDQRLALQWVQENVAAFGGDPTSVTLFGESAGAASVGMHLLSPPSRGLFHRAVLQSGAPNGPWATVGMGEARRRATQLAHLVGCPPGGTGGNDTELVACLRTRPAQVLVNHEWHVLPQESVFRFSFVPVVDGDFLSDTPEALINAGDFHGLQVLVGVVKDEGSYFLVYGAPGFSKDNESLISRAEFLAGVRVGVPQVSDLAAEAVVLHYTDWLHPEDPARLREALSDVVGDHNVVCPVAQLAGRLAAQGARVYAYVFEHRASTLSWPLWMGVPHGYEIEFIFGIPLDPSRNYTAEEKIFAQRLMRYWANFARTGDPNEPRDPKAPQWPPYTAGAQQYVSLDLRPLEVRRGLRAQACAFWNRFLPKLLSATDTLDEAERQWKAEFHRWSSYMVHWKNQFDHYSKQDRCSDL
Chain of Cholinesterase (P06276 whole entry): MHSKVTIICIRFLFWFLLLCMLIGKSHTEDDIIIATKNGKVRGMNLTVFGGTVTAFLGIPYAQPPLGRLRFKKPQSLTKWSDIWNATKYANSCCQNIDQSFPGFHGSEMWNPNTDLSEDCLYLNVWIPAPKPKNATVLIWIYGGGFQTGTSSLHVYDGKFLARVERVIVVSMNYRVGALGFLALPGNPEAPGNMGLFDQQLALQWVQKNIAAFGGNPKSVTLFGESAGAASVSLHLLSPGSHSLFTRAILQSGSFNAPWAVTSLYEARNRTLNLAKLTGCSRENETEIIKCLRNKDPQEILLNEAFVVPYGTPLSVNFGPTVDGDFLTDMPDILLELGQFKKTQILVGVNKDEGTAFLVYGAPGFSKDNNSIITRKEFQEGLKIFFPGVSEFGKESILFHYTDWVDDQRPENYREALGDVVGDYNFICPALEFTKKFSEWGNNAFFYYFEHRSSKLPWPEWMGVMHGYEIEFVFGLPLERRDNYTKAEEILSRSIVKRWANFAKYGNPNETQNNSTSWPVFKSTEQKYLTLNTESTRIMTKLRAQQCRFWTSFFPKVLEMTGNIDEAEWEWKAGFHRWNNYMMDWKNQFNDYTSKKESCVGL
T8 sequence (P41595 whole entry): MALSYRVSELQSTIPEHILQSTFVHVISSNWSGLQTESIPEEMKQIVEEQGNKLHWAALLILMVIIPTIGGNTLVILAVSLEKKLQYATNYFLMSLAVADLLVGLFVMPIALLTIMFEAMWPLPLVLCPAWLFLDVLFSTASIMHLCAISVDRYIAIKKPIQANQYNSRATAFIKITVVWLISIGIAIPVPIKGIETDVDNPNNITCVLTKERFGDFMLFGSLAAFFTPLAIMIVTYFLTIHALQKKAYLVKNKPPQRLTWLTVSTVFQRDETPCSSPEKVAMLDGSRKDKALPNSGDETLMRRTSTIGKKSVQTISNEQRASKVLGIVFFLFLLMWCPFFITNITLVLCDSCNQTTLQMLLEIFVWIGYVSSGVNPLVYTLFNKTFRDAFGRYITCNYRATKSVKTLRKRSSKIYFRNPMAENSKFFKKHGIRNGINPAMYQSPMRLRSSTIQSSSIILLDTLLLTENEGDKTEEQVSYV
Chain of 5-hydroxytryptamine receptor 5A (P47898 whole entry): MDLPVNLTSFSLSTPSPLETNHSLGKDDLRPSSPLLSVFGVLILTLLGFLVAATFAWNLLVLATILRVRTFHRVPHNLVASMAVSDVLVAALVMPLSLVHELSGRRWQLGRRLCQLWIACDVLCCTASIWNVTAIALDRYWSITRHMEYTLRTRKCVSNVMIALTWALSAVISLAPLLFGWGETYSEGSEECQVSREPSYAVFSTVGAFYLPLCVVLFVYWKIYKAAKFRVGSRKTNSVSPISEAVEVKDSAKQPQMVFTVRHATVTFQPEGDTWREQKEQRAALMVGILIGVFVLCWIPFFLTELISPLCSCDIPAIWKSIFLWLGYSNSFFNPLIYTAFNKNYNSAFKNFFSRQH
Chain of 5-hydroxytryptamine receptor 2B (Rattus norvegicus, UniProt P30994) (P30994 whole entry): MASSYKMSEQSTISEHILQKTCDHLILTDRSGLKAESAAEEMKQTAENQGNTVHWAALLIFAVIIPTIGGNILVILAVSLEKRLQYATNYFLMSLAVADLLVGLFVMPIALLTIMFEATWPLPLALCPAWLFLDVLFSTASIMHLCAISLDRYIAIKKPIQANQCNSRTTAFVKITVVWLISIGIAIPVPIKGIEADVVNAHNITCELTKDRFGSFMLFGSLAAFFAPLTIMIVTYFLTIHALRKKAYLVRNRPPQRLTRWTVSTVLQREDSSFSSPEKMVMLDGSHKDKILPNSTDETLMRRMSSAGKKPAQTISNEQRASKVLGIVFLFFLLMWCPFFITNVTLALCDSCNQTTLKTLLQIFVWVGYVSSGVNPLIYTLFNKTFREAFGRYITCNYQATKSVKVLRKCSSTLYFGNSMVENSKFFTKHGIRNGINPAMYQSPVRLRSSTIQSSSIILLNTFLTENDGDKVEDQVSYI
Chain of Gamma-aminobutyric acid receptor subunit alpha-6 (Q16445 whole entry): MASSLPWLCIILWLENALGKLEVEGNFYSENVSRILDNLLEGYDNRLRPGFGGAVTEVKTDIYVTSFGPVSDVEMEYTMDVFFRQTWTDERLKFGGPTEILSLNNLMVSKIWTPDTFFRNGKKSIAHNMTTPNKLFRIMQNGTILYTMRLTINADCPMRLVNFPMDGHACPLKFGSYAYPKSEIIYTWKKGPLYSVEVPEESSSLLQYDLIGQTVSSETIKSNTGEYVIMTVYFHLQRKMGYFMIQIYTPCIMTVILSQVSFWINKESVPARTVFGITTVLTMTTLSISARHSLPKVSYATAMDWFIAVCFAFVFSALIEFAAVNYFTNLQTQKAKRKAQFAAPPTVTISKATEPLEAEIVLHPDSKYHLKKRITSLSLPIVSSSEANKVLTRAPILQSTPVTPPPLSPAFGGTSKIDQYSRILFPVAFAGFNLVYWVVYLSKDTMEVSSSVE

## Cc1nccc2c1[nH]c1ccccc12 [HARMAN]
Acetylcholinesterase [1]
  pIC50: < 5.00
Cholinesterase
  pIC50: < 5.00
[2]
  pIC50: < 5.74
[3]
  pIC50: 7.54
[4]
  pIC50: 5.60

## Cc1ccc2c(c1)c1cc[n+](-c3ccccc3)cc1n2C
Acetylcholinesterase [1]
  pIC50: 6.38
Cholinesterase
  pIC50: 4.77
Acetylcholinesterase [5]
  pIC50: 6.38

## Brc1cccc2[nH]c3c(c12)CCNC3
[6]
  pKi: > 6.74

## COCc1c(C(=O)OC(C)C)ncc2[nH]c3ccc(OCc4ccccc4)cc3c12 [ABECARNIL]
[4]
  pIC50: 9.00
[7]
  pKi: 9.00
[8]
  pKi: 8.70
[9]
  pKi: 8.40
[10]
  pKi: 5.92
[11]
  pKi: 8.30
[12]
  pKi: 5.19

## COc1ccc2[nH]c3c(-c4cn(C)c5ccccc45)nccc3c2c1
[13]
  pKi: 7.00
[14]
  pKi: 6.70
[15]
  pKi: 7.00

## COc1cccc2[nH]c3c(c12)CCN=C3
[14]
  pKi: 7.19

## Cn1c2ccccc2c2cc[n+](-c3ccc(Br)cc3Br)cc21
Acetylcholinesterase [5]
  pIC50: 6.96
Acetylcholinesterase [16]
  pIC50: 6.96

## c1ccc(-c2nccc3c2[nH]c2ccccc23)cc1
[13]
  pKi: 5.85
[15]
  pKi: 5.85

## COc1ccc(CC2NCCc3c2[nH]c2cc(C)c(C)cc32)cc1OC (stereo not given)
[6]
  pKi: 8.30
[17]
  pKi: 9.70
[18]
  Kb: < 0.3 nM and 0.08 nM

## Nc1cccc(-c2ccc(C(=O)N3CCc4c([nH]c5ccccc45)C3c3ccc4c(c3)OCO4)o2)c1 (stereo not given)
[19]
  pKi: 7.29

## CC(C)n1c2ccccc2c2cc[n+](-c3ccccc3)cc21
Acetylcholinesterase [1]
  pIC50: 6.27
Cholinesterase
  pIC50: 4.43
Acetylcholinesterase [5]
  pIC50: 5.51

## O=C(c1ccc(-c2ccc([N+](=O)[O-])cc2)o1)N1CCc2c([nH]c3ccccc23)C1c1ccc2c(c1)OCO2 (stereo not given)
[19]
  pKi: 7.19

## Oc1ccc(CCCN2CCc3c([nH]c4ccccc34)C2)cc1
[20]
  pIC50: 7.06

## Nc1ccc(-c2ccc(C(=O)N3CCc4c([nH]c5ccccc45)C3c3ccc4c(c3)OCO4)o2)cc1 (stereo not given)
[19]
  pKi: 7.19

## C=CC(=O)N1CCc2c(n(CCCCN3CCN(c4ccccc4OC)CC3)c3ccccc23)C1
[6]
  pKi: 7.36
